Data set [1] has as its system histamine and carbachol-stimulated gastric acid secretion. The experiment in a line: Inhibition of gastric acid secretion of the conscious male rat, oral administration. It is filed as in vivo, rat (Sprague-Dawley). Conditions: sodium salt, read-out: % inhibition of gastric acid secretion between 3-5 hours after administration; for inhibition in vivo at 10 µmol/kg: 10 μmole/kg; for inhibition in vivo at 20 µmol/kg: 20 μmole/kg; for inhibition in vivo at 40 µmol/kg: 40 μmole/kg. Here is the method:
Male rats (the Sprague-Dawley strain) were used in this experiment. OMEPRAZOLE sodium salt or LANSOPRAZOLE sodium salt (20 mg) was suspended in 10 ml of 0.1 N NaHCO3. 40 mg of each of the sodium salts of Compound 1, Compound 2, Compound 3, Compound 4, Compound 6 Compound 9, Compound 12, mixture (1:1) of Compound 16 and 17, mixture (1:1) of Compound 18 and 19, mixture (1:1) of Compound 20 and 21, mixture (1:1) of Compound 22 and 23, Compound 27, mixture (1:1) of Compound 34 and 35, and Compound 36 were dissolved in 10 ml of 50 mM sodium phosphate buffer, pH 7.4. The doses administered to the rats were as follows (μmole per kg body weight of the rat): OMEPRAZOLE (10 μmole/kg), LANSOPRAZOLE (10 μmole/kg), Compound 120 μmole/kg, Compound 2 40 μmole/kg, Compound 320 μmole/kg, Compound 420 μmole/kg, Compound 620 μmole/kg, Compound 940 μmole/kg, Compound 1240 μmole/kg, mixture (1:1) of Compound 16 and 17 40 μmole/kg, mixture (1:1) of Compound 18 and 19 40 μmole/kg, mixture (1:1) of Compound 20 and 21 40 μmole/kg, mixture (1:1) of Compound 22 and 23 40 μmole/kg, Compound 27 40 μmole/kg, mixture (1:1) of Compound 34 and 35 40 μmole/kg, and Compound 3640 μmole/kg. These drug solutions were orally administered.
(§1) 3 hours after administration the abdomen of the rat was incised and the pylorus was ligated under light ether anethesia. Histamine (30 mg/kg) and carbachol (30 μg/kg) were subcutaneously injected for acid stimulation. Immediately the abdomen was closed. Two hours later, the esophagus was ligated and the stomach was removed. The gastric juice was collected and acid output was quantified by titration using 0.1 N NaOH solution. As a control experiment, 1 ml of 50 mM phosphate buffer (pH 7.4) solution was orally administrated without any prodrug or proton pump inhibitory drug. Acid output was quantified by same method as described above, showing maximum histamine and carbachol-stimulated gastric acid secretion. Percentage inhibition was calculated from the fractional responses elicited by the test compound and a control experiment.

The next data set has as its system gastric acid secretion. In words: Inhibition of gastric acid secretion in rat, intravenous administration. It is filed as in vivo. Here is the method: as §1
Inhibition of gastric acid secretion after intravenous administration of compounds of the invention was also examined. Lansoprazole sodium salt (20 mg) was dissolved in 40% hydroxypropyl-beta-cyclodextrin. The compounds of the invention used in this experiment were dissolved in phosphate buffered saline solution of pH 7.4. Each compound was injected intravenously at a dose of 5 μmole/kg or 10 μmole/kg (μmole per kg body weight of rat) as indicated in Table 4 below. Between 2 to 4 hours after injection gastric juice was collected, and the percentage of inhibition was determined as described above.

Data set [2] can be described thus: Stability in plasma at 37° C. (gradient HPLC-UV), rat plasma. Format: in vitro ADME. Here is the method:
(§2) Exemplary test compounds (prodrugs) of the invention were incubated in plasma at 37° C., and the concentration of the compounds and also of the corresponding proton pump inhibitor compounds (PPI) were determined by a gradient HPLC-UV method. Although the half-lives of test compounds in plasma varies depending on their structure, nevertheless it is apparent that in plasma the compounds of the invention are converted into the corresponding proton pump inhibitor at a rate faster than the hydrolysis rate of the compound at neutral or near neutral pH.

The nature of data set [3]: Stability in Britton Robinson buffers (hydrolysis of prodrug to PPI, HPLC). Conditions: Britton Robinson buffer, pH 7.
Procedure: The stability of Compounds 1, 2, 3, 4 and 5 of the invention in aqueous solution (0.1 mg/mL) was investigated in Britton Robinson buffers of pH 3, pH 7, and pH 9, respectively. A solution of 0.1 mg/mL concentration of each compound in each buffer was prepared and the solutions were stored at 37° C. for 1 h and then the concentrations of test compounds were determined by HPLC.
Data set [4] in a line: Stability in plasma at 37° C. (gradient HPLC-UV), human plasma. It is filed as in vitro ADME. Here is the method:
as §2

Data set [5] in a line: Solubility in phosphate buffered saline buffer of pH 7.4 at 37° C. Format: physicochemical. As to conditions: aqueous buffer, sodium salts, phosphate buffered saline buffer pH 7.4, read-out: Solubility at 37° C. Conc. On the procedure: The solubility of the sodium salts of certain exemplary compounds of the present invention in a phosphate buffered saline buffer of pH 7.4 (50 mM sodium phosphate, 10 mM KCl, 0.1 M NaCl) and also in a more acidic Britton Robinson buffer of pH 3 (40 mM acetic acid, 40 mM phosphoric acid, 40 mM boric acid, 36 mM NaOH, and 19.6 mg/ml KCl) was also evaluated. […] The tested compounds were much less soluble little in the Britton Robinson buffer of pH 3, but still more soluble than the prior art compounds (a) through (f). This is understandable in view of the fact that in the buffer of pH 7.4 the compounds of the invention form a sodium salt, whereas in the buffer of pH 3 the compounds are less soluble free carboxylic acids. Thus, a solution of a sodium or other pharmaceutically acceptable salt of the compounds of the invention, or stated in an other way the compounds of the invention at pH 7 or above are highly soluble and therefore suitable for administration by intravenous injection.

One may read the half-life as how long it takes for the measured level to halve. By solubility is commonly meant the dissolved amount per volume that the medium holds.

`COc1ccc2[nH]c([S+]([O-])Cc3ncc(C)c(OC)c3C)nc2c1` (centres unmarked) [OMEPRAZOLE, 5-methoxy-2-(4-methoxy-3,5-dimethyl-pyridin-2-yl-methanesulfinyl)-1H-benzimidazole, reference compound]: the inhibition in vivo at 10 µmol/kg in data set [1] is 54.6 ± 10.4%.
As to `COc1ccc2nc([S+]([O-])Cc3ncc(C)c(OC)c3C)n(S(=O)(=O)c3ccc(OCC(=O)[O-])cc3)c2c1.[Na+]` (centres unmarked) [Compound 10, {4-[6-methoxy-2-(4-methoxy-3,5-dimethyl-pyridin-2-ylmethanesulfinyl)-benzimidazole-1-sulfonyl]-phenoxy}-acetic acid sodium salt], in the data set with gastric acid secretion (5 μmole/kg), the “% inhibition of gastric acid secretion between 2-4 hours after i.v. administration” value (“% inhibition” for short) is 18.3 ± 11.9%.
With `Cc1c(OCC(F)(F)F)ccnc1C[S+]([O-])c1nc2ccccc2[nH]1` (centres unmarked) [LANSOPRAZOLE, 2-[3-methyl-4-(2,2,2-trifluoroethoxy)pyridin-2-yl-methanesulfinyl]-1H-benzimidazole, reference compound], the “% inhibition” value in the data set with gastric acid secretion (5 μmole/kg) was 91.5 ± 5.0%. Besides, the inhibition in vivo at 10 µmol/kg in data set [1] was 67.6 ± 14.7%.
`COc1ccc(S(=O)(=O)n2c([S+]([O-])Cc3nccc(OCC(F)(F)F)c3C)nc3ccccc32)cc1C(=O)[O-].[Na+]` (centres unmarked) [Compound 3, 2-methoxy-5-{2-[3-methyl-4-(2,2,2-trifluoro-ethoxy)-pyridin-2-ylmethanesulfinyl]benzimidazole-1-sulfonyl}-benzoic acid sodium salt]: the half-life in data set [2] worked out at 81 min; in data set [4], 10 min. The half-life at 0.1 mg/mL in data set [3] is over 50 h. The solubility in data set [5] is over 50 mg/mL. Further, in data set [1], the inhibition in vivo at 20 µmol/kg stood at 84.9 ± 13.6%.
As for `Cc1cc(OCC(=O)NCCCCCC(=O)[O-])cc(C)c1S(=O)(=O)n1c([S+]([O-])Cc2nccc(OCC(F)(F)F)c2C)nc2ccccc21.[Na+]` (centres unmarked) [Compound 6, 6-[2-(3,5-Dimethyl-4-{2-[3-methyl-4-(2,2,2-trifluoro-ethoxy)-pyridin-2-ylmethanesulfinyl]-benzimidazole-1-sulfonyl}-phenoxy)acetylamino]hexanoic acid sodium salt], the half-life is 52 min in data set [2] and 60 min in data set [4]. Besides, the inhibition in vivo at 20 µmol/kg in data set [1] came to 53.5 ± 18.3%.
As to `Cc1ccc(C(=O)[O-])cc1S(=O)(=O)n1c([S+]([O-])Cc2nccc(OCC(F)(F)F)c2C)nc2ccccc21.[Na+]` (centres unmarked) [Compound 27, 3-{2-[3-Methyl-4-(2,2,2-trifluoro-ethoxy)-pyridin-2-yl-methanesulfinyl]-benzimidazole-1-sulfonyl}-4-methylbenzoic acid sodium salt], in data set [2], the half-life turned out to be 14 min. The inhibition in vivo at 40 µmol/kg in data set [1] was determined as 96.7 ± 1.3%.
Turning to `Cc1c(OCC(F)(F)F)ccnc1C[S+]([O-])c1nc2ccccc2n1S(=O)(=O)c1cccc(C(=O)O)c1` (centres unmarked) [Compound 1, 3-{2-[3-Methyl-4-(2,2,2-trifluoro-ethoxy)-pyridin-2-ylmethanesulfinyl]-benzimidazole-1-sulfonyl}benzoic acid], the half-life in data set [2] was determined as 14 min; in data set [4], 12 min. In data set [3], the half-life at 0.1 mg/mL was over 50 h. Also, the “% inhibition” value was determined as 83.7 ± 10.1% in the data set with gastric acid secretion (5 μmole/kg) and 90.6 ± 2.1% in the data set on gastric acid secretion (10 μmole/kg). Besides, the solubility in data set [5] was over 30 mg/mL. Further, in data set [1], the inhibition in vivo at 20 µmol/kg was found to be 81.9 ± 7.1%.
For the compound `Cc1c(OCC(F)(F)F)ccnc1C[S+]([O-])c1nc2ccccc2n1S(=O)(=O)c1ccc(OCC(=O)[O-])c(OCC(=O)[O-])c1.[Na+].[Na+]` (centres unmarked) [Compound 12, (2-Carboxymethoxy-4-{2-[3-methyl-4-(2,2,2-trifluoro-ethoxy)-pyridin-2-ylmethanesulfinyl]-benzimidazole-1-sulfonyl}-phenoxy)-acetic acid di-sodium salt], the half-life in data set [2] is 78 min; in data set [4], 51 min. In addition, the “% inhibition” value in the data set with gastric acid secretion (5 μmole/kg) worked out at 89.2 ± 6.8%; in the data set on gastric acid secretion (10 μmole/kg) it was 92.6 ± 2.9%. The solubility in data set [5] was over 50 mg/mL. In addition, the inhibition in vivo at 40 µmol/kg in data set [1] was 82.8 ± 9.6%.
As for `CCC(Oc1ccc(S(=O)(=O)n2c([S+]([O-])Cc3nccc(OCC(F)(F)F)c3C)nc3ccccc32)cc1)C(=O)[O-].[Na+]` (centres unmarked) [Compound 4 Na salt, 2-(4-{2-[3-methyl-4-(2,2,2-trifluoro-ethoxy)-pyridin-2-ylmethanesulfinyl]-benzimidazole-1-sulfonyl}phenoxy)butyric acid sodium salt], the half-life amounted to 98 min in data set [2] and 60 min in data set [4].
With `COCCCOc1ccnc(C[S+]([O-])c2nc3ccccc3n2S(=O)(=O)c2ccc(OCC(=O)[O-])cc2)c1C.[Na+]` (centres unmarked) [Compound 8, (4-{2-[4-(3-Methoxy-propoxy)-3-methyl-pyridin-2-ylmethanesulfinyl]-benzimidazole-1-sulfonyl}-phenoxy)-acetic acid sodium salt], the solubility in data set [5] is over 30 mg/mL.
As for `Cc1c(OCC(F)(F)F)ccnc1C[S+]([O-])c1nc2ccccc2n1S(=O)(=O)c1ccc(OCC(=O)NCCCC(=O)[O-])cc1C(C)C.[Na+]` (centres unmarked) [Compound 11], the half-life came out at 53 min in data set [2] and 14 min in data set [4].
As to `Cc1cc(OCC(=O)[O-])cc(C(C)C)c1S(=O)(=O)n1c([S+]([O-])Cc2nccc(OCC(F)(F)F)c2C)nc2ccccc21.[Na+]` (centres unmarked) [Compound 39, 4-[2-{3-Methyl-4-(2,2,2-trifluoroethoxy)pyridin-2-yl-methanesulfinyl}-benzimidazole-1-sulfonyl]-3-isopropyl-5-methylphenoxyacetic acid sodium salt], in data set [2], the half-life came to 317 min.
The compound `COc1ccc(S(=O)(=O)n2c([S+]([O-])Cc3nccc(OCC(F)(F)F)c3C)nc3ccccc32)cc1CCC(=O)[O-].[Na+]` (centres unmarked) [Compound 36, 3-[2-Methoxy-5-{2-(3-methyl-4-(2,2,2-trifluoroethoxy)pyridin-2-yl-methanesulfinyl)-benzimidazole-1-sulfonyl}phenyl]propionic acid sodium salt] gave a half-life in data set [2] of 19 min. For the same compound, in data set [1], the inhibition in vivo at 40 µmol/kg came out at 89.8 ± 6.8%.
`Cc1cc(OCC(=O)[O-])cc(C)c1S(=O)(=O)n1c([S+]([O-])Cc2nccc(OCC(F)(F)F)c2C)nc2ccccc21.[Na+]` (centres unmarked) [Compound 5] showed a half-life in data set [2] of 31 min. For the same compound, the half-life at 0.1 mg/mL in data set [3] is over 50 h. In addition, in data set [5], the solubility was over 30 mg/mL.

Source of the values: US6897227B2, “Prodrugs of proton pump inhibitors” (Winston Pharmaceuticals, Inc., priority 2002, dated 2005).
